This passage reports T/C results from PubChem BioAssay AID328 (DTP/NCI, 2004).

The test deals with BDF1 mice, P388 leukemia ip, median survival T/C. The test can be described thus: NCI In Vivo Anticancer Drug Screen. Data for tumor model P388 Leukemia (intraperitoneal) in B6D2F1 (BDF1) mice. As to conditions: endpoint: median survival time, higher = longer survival. In a few lines:
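Steps: implant the tumour, treat one group with compound and another with vehicle, record survival, then divide treated by control.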

Where [1] appears, read: dose: 200.0 mg/kg/injection, schedule: Q01DX001 (ip), vehicle: saline with Tween-80.
The mark [2] stands for this setting: dose: 400.0 mg/kg/injection, schedule: Q01DX001 (ip), vehicle: saline with Tween-80.
Setting [3] is: dose: 12.5 mg/kg/injection, schedule: Q01DX009 (ip), vehicle: saline with Tween-80.
Setting [4] is: dose: 25.0 mg/kg/injection, schedule: Q01DX009 (ip), vehicle: saline with Tween-80.
Where [5] appears, read: dose: 50.0 mg/kg/injection, schedule: Q01DX009 (ip), vehicle: saline with Tween-80.
Setting [6] is: dose: 100.0 mg/kg/injection, schedule: Q01DX009 (ip), vehicle: saline with Tween-80.
[7] abbreviates: dose: 100.0 mg/kg/injection, schedule: Q04DX003 (ip), vehicle: saline with Tween-80.
[8] abbreviates: dose: 200.0 mg/kg/injection, schedule: Q01DX009 (ip), vehicle: saline with Tween-80.
Where [9] appears, read: dose: 200.0 mg/kg/injection, schedule: Q04DX003 (ip), vehicle: saline with Tween-80.

Several values for one entry are separate records, joined by “and”; a condition that tells them apart may be missing. Identical values can stand only once. Inconclusive results and toxic doses are left out.

Consider `NC(=O)c1cn(C2OC(CO)C(O)C2O)c2ncnc(N)c12` (stereo unspecified), for which the T/C by setting is: (dose: 0.18 mg/kg/injection, schedule: Q01DX009 (ip), vehicle: saline with Tween-80) 183 % of control; (dose: 0.25 mg/kg/injection, schedule: Q01DX010 (ip), vehicle: water) 181 % of control; (dose: 0.37 mg/kg/injection, schedule: Q01DX009 (ip), vehicle: saline with Tween-80) 162 % of control; (dose: 0.5 mg/kg/injection, schedule: Q01DX010 (ip), vehicle: water) 190 % of control; (dose: 0.5 mg/kg/injection, schedule: Q04DX003 (ip), vehicle: saline) 163 % of control; (dose: 0.75 mg/kg/injection, schedule: Q01DX009 (ip), vehicle: saline with Tween-80) 187 % of control and 200 % of control. Moreover, the T/C was 177 % of control (dose: 0.75 mg/kg/injection, schedule: Q01DX010 (ip), vehicle: water); 195 % of control (dose: 1.5 mg/kg/injection, schedule: Q01DX009 (ip), vehicle: saline with Tween-80); 154 % of control (dose: 1.5 mg/kg/injection, schedule: Q04DX003 (ip), vehicle: saline); 122 % of control (dose: 2.0 mg/kg/injection, schedule: Q04DX003 (ip), vehicle: saline with Tween-80); 195 % of control (dose: 3.0 mg/kg/injection, schedule: Q04DX003 (ip), vehicle: saline with Tween-80); 195 % of control (dose: 3.0 mg/kg/injection, schedule: Q04DX003 (ip), vehicle: saline). In addition, the T/C was 190 % of control (dose: 6.0 mg/kg/injection, schedule: Q04DX003 (ip), vehicle: saline with Tween-80) and 90 % of control (dose: 6.0 mg/kg/injection, schedule: Q04DX003 (ip), vehicle: saline).

As for `Cc1ccc(NC(=O)c2ccc(Cl)cc2)c(Br)c1`, the T/C is 100 % of control (dose: 100.0 mg/kg/injection, schedule: Q01DX001 (ip), vehicle: saline with Tween-80); 109 % of control under setting [1]; 100 % of control under setting [2].

Regarding `Cc1[o+]c(C)c2c(c1C)-c1ccccc1C2=O`, the T/C runs as follows: (dose: 6.25 mg/kg/injection, schedule: Q01DX009 (ip), vehicle: saline with Tween-80) 104 % of control; under setting [3], 113 % of control; under setting [4], 98 % of control; (dose: 25.0 mg/kg/injection, schedule: Q04DX003 (ip), vehicle: saline with Tween-80) 109 % of control; under setting [5], 106 % of control; under setting [6], 120 % of control. The T/C is, setting by setting: under setting [7], 100 % of control; under setting [8], 104 % of control; under setting [9], 116 % of control.

Regarding `CCCCCCCCCCCCCCC(F)C(=O)OC` (stereo unspecified), the T/C by setting is: (dose: 25.0 mg/kg/injection, schedule: Q01DX009 (sc), vehicle: olive oil, sesame oil, peanut oil) 95 % of control; (dose: 50.0 mg/kg/injection, schedule: Q01DX009 (sc), vehicle: olive oil, sesame oil, peanut oil) 86 % of control; (dose: 50.0 mg/kg/injection, schedule: Q04DX003 (sc), vehicle: olive oil, sesame oil, peanut oil) 91 % of control; (dose: 100.0 mg/kg/injection, schedule: Q01DX009 (sc), vehicle: olive oil, sesame oil, peanut oil) 100 % of control; (dose: 100.0 mg/kg/injection, schedule: Q04DX003 (sc), vehicle: olive oil, sesame oil, peanut oil) 91 % of control.

As for `O=S(=O)(O)O.[NH-]CC(N)=O.[NH-]CC(N)=O.[Ni+2]`, the T/C runs as follows: (dose: 6.25 mg/kg/injection, schedule: Q01DX009 (ip), vehicle: water) 115 % of control; (dose: 12.5 mg/kg/injection, schedule: Q01DX009 (ip), vehicle: water) 110 % of control; (dose: 12.5 mg/kg/injection, schedule: Q04DX003 (ip), vehicle: water) 100 % of control; (dose: 25.0 mg/kg/injection, schedule: Q04DX003 (ip), vehicle: water) 90 % of control; (dose: 50.0 mg/kg/injection, schedule: Q04DX003 (ip), vehicle: water) 109 % of control.

With `C[C@]12C=CC(=O)C=C1CC[C@@H]1[C@@H]2CC[C@]2(C)OC(=O)CC[C@@H]12`, the T/C under setting [5] was 100 % of control; the T/C under setting [6] was 86 % of control; the T/C under setting [7] was 90 % of control; the T/C under setting [8] was 90 % of control; the T/C under setting [9] is 90 % of control.

Consider `C[N+](C)(Cn1nc(Cl)c2cc([N+](=O)[O-])ccc21)Cn1nc(Cl)c2cc([N+](=O)[O-])ccc21`, for which the T/C runs as follows: under setting [7], 115 % of control; under setting [9], 153 % of control.

With `O=C(CO)c1ccc([N+](=O)[O-])cc1`, under setting [5], the T/C is 106 % of control.

With `O=C1CSCC(=O)C1`, the T/C reads like this: (dose: 100.0 mg/kg/injection, schedule: Q04DX002 (ip), vehicle: saline with Tween-80) 94 % of control; (dose: 200.0 mg/kg/injection, schedule: Q04DX002 (ip), vehicle: saline with Tween-80) 96 % of control; (dose: 400.0 mg/kg/injection, schedule: Q04DX002 (ip), vehicle: saline with Tween-80) 96 % of control.

On to `S=c1cc(-c2cccs2)ss1`, for which the T/C (dose: 50.0 mg/kg/injection, schedule: Q01DX009 (ip), vehicle: saline) was 109 % of control; the T/C (dose: 50.0 mg/kg/injection, schedule: Q04DX003 (ip), vehicle: saline) was 108 % of control; the T/C (dose: 100.0 mg/kg/injection, schedule: Q01DX009 (ip), vehicle: saline) is 96 % of control; the T/C (dose: 100.0 mg/kg/injection, schedule: Q04DX003 (ip), vehicle: saline) is 115 % of control; the T/C (dose: 200.0 mg/kg/injection, schedule: Q01DX009 (ip), vehicle: saline) was 100 % of control; the T/C (dose: 200.0 mg/kg/injection, schedule: Q04DX003 (ip), vehicle: saline) was 105 % of control. Also, the T/C is, setting by setting: (dose: 400.0 mg/kg/injection, schedule: Q01DX009 (ip), vehicle: saline) 91 % of control; (dose: 400.0 mg/kg/injection, schedule: Q04DX003 (ip), vehicle: saline) 107 % of control.

In the case of `CC(C)Cn1cnc2c(SCc3ccc(Cl)cc3Cl)nc(N)nc21`, the T/C by setting is: (dose: 66.0 mg/kg/injection, schedule: Q01DX009 (ip), vehicle: gum acacia) 112 % of control; (dose: 100.0 mg/kg/injection, schedule: Q01DX009 (ip), vehicle: gum acacia) 95 % of control; (dose: 100.0 mg/kg/injection, schedule: Q04DX003 (ip), vehicle: gum acacia) 88 % of control; (dose: 150.0 mg/kg/injection, schedule: Q01DX009 (ip), vehicle: gum acacia) 100 % of control; (dose: 200.0 mg/kg/injection, schedule: Q01DX009 (ip), vehicle: gum acacia) 104 % of control; (dose: 200.0 mg/kg/injection, schedule: Q04DX003 (ip), vehicle: gum acacia) 88 % of control. For the same compound, the T/C (dose: 400.0 mg/kg/injection, schedule: Q01DX009 (ip), vehicle: gum acacia) is 120 % of control.

Take `CCOC(=O)CNCc1ccc(C)cc1`: the T/C (dose: 50.0 mg/kg/injection, schedule: Q01DX009 (ip), vehicle: water) was 100 % of control; the T/C (dose: 100.0 mg/kg/injection, schedule: Q01DX009 (ip), vehicle: water) is 99 % of control; the T/C (dose: 100.0 mg/kg/injection, schedule: Q04DX003 (ip), vehicle: water) is 91 % of control; the T/C (dose: 200.0 mg/kg/injection, schedule: Q01DX009 (ip), vehicle: water) was 103 % of control; the T/C (dose: 200.0 mg/kg/injection, schedule: Q04DX003 (ip), vehicle: water) is 93 % of control; the T/C (dose: 400.0 mg/kg/injection, schedule: Q01DX009 (ip), vehicle: water) was 108 % of control. For the same compound, the T/C (dose: 400.0 mg/kg/injection, schedule: Q04DX003 (ip), vehicle: water) is 100 % of control.

Regarding `CCOC(=O)c1cc[nH]c1CC(=O)NC`, the T/C is, setting by setting: under setting [1], 112 % of control; under setting [2], 112 % of control.

On to `NC(=O)C(CC(=O)OCc1ccccc1)NC(=O)OCc1ccccc1` (stereo unspecified), for which the T/C under setting [7] was 100 % of control; the T/C under setting [9] is 95 % of control; the T/C (dose: 400.0 mg/kg/injection, schedule: Q04DX003 (ip), vehicle: saline with Tween-80) is 104 % of control.

With `Cc1ccc(S(=O)(=O)OC2CS(=O)(=O)C2)cc1`, the T/C under setting [4] is 102 % of control, the T/C under setting [5] was 100 % of control, the T/C under setting [6] was 102 % of control and the T/C under setting [8] was 102 % of control.

As to `Cc1cccc(NC(=O)c2ccccc2)n1`, the T/C reads like this: under setting [3], 91 % of control; under setting [4], 91 % of control; under setting [5], 104 % of control.
